The source of these data is patent publication US20250002487A1, “HETEROCYCLIC COMPOUNDS AND USES THEREOF” (Ventus Therapeutics U.S., Inc., priority 2021, published 2025).

As usually defined, the IC50 is the concentration needed to halve the response being measured.

Molecules are shown by their SMILES.

The target in this experiment is human-cGAS (h-cGAS) (Homo sapiens, UniProt Q8N884). The experiment in a line: hcGAS Kinase-Glo Assay. To be noted: 40 nM h-cGAS, 100 μM ATP, 100 μM GTP, 25 nM dsDNA, 3 h incubation, read-out: hcGAS potency IC50. Format: biochemical. The method, then: In some embodiments, the compounds of the instant disclosure may be tested for their human-cGAS (h-cGAS) inhibition activity using the methodology reported in Lama et al., “Development of human cGAS-specific small molecule inhibitors for repression of double stranded DNA (dsDNA)-triggered interferon expression”, Nature Communications 10, Article number: 2261 (2019), incorporated herein by reference. hcGAS Kinase-Glo Assay Compounds were tested for their human-cGAS (h-cGAS) inhibition activity using the methodology reported in Lama et al., “Development of human cGAS-specific small molecule inhibitors for repression of double stranded DNA (dsDNA)-triggered interferon expression”, Nature Communications 10. Article number: 2261 (2019), which is herein incorporated by reference in its entirety, with slight changes to some conditions as shown in Table B. The results of the assays, expressed in IC50 ranges are reported in Table C with the following designations: A represents an IC50 value <0.1 μM; B represents an IC50 value ≥0.1 μM and <0.5 μM; C represents an IC50 value ≥0.5 μM and <1.0 μM; D represents an IC50 value ≥1.0 μM. [table]
human-cGAS (h-cGAS), sequence (Q8N884 whole entry): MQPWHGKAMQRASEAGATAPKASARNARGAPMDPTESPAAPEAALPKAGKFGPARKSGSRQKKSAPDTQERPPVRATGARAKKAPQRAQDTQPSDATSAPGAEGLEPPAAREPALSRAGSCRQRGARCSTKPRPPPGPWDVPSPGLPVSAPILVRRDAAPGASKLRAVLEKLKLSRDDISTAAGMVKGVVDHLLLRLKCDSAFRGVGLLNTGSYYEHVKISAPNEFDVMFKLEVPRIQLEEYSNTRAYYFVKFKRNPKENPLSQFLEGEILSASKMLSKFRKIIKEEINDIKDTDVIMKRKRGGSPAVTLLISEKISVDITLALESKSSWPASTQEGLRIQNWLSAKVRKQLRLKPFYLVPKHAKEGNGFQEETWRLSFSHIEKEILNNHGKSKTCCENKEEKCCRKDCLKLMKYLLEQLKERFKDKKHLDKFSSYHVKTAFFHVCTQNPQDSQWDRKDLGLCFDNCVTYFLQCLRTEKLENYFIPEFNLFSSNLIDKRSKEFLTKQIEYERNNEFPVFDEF
(In general: Kinase-Glo reads ATP consumption through a luciferase reaction.)
As for `N#Cc1cc(C(=O)Nc2nnc(-c3ccccc3Cl)s2)on1` [Compound 37, N-(5-(2-chlorophenyl)-1,3,4-thiadiazol-2-yl)-3-cyanoisoxazole-5-carboxamide], the IC50 was below 100 nM. In the case of `CSc1nnc(NC(=O)c2cc(-c3ccc(Cl)cc3)no2)s1` [Compound 50, 3-(4-chlorophenyl)-N-(5-(methylthio)-1,3,4-thiadiazol-2-yl)isoxazole-5-carboxamide], the IC50 fell in the range of 500 to 1000 nM. Next, `CSc1nnc(NC(=O)c2onc3c(C)cccc23)s1` [Compound 226, 7-methyl-N-[5-(methylsulfanyl)-1,3,4-thiadiazol-2-yl]-2,1-benzoxazole-3-carboxamide]: at least 1000 nM; `O=C(Nc1nnc(-c2ccccc2Cl)s1)c1cc(CCO)no1` [Compound 179, N-(5-(2-chlorophenyl)-1,3,4-thiadiazol-2-yl)-3-(2-hydroxyethyl)isoxazole-5-carboxamide]: 100 to 500 nM; `CSc1nnc(NC(=O)c2onc3c2ccc2cccnc23)s1` [Compound 94, N-(5-(methylthio)-1,3,4-thiadiazol-2-yl)isoxazolo[4,3-h]quinoline-3-carboxamide]: 100 to 500 nM. For the compound `CSc1nnc(NC(=O)c2nnn(-c3ccccc3F)n2)s1` [Compound 138, 2-(2-fluorophenyl)-N-[5-(methylsulfanyl)-1,3,4-thiadiazol-2-yl]-1,2,3,4-tetrazole-5-carboxamide], the IC50 lay within 500 to 1000 nM. With `CSc1nnc(NC(=O)c2onc3c2CCc2cccnc2-3)s1` [Compound 173, N-(5-(Methylthio)-1,3,4-thiadiazol-2-yl)-4,5-dihydroisoxazolo[4,3-h]quinoline-3-carboxamide] the figure was 500 to 1000 nM; with `CSc1nnc(NC(=O)c2onc3c2ccc2ccncc23)s1` [Compound 279, N-(5-(methylthio)-1,3,4-thiadiazol-2-yl)isoxazolo[4,3-h]isoquinoline-3-carboxamide], 500 to 1000 nM; with `CSc1nnc(NC(=O)c2nnc(N3CCCC(O)C3)o2)s1` (centres unmarked) [Compound 109, 5-(3-hydroxypiperidin-1-yl)-N-(5-(methylthio)-1,3,4-thiadiazol-2-yl)-1,3,4-oxadiazole-2-carboxamide], at least 1000 nM. With `O=C(Nc1nnc(-c2ccccc2Cl)s1)c1c[nH]nn1` [Compound 59, N-(5-(2-chlorophenyl)-1,3,4-thiadiazol-2-yl)-1H-1,2,3-triazole-4-carboxamide], the IC50 lay within 500 to 1000 nM.

Turning to `O=C(Nc1nnc(-c2cccc(Cl)c2)s1)c1onc2ccccc12` [Compound 23, N-(5-(3-chlorophenyl)-1,3,4-thiadiazol-2-yl)benzo[c]isoxazole-3-carboxamide], the IC50 is at least 1000 nM. Take `O=C(Nc1nnc(-c2ccccc2C(F)(F)F)s1)c1onc2ccccc12` [Compound 143, N-(5-(2-(trifluoromethyl)phenyl)-1,3,4-thiadiazol-2-yl)benzo[c]iso-xazole-3-carboxamide]: the IC50 was 100 to 500 nM. With `CSc1nnc(NC(=O)c2onc3ccc(F)cc23)s1` [Compound 223, 5-fluoro-N-[5-(methylsulfanyl)-1,3,4-thiadiazol-2-yl]-2,1-benzoxazole-3-carboxamide] the figure was 500 to 1000 nM. On to `CNC(=O)c1cc(C(=O)Nc2nnc(-c3ccccc3Cl)s2)on1` [Compound 89, N5-(5-(2-chlorophenyl)-1,3,4-thiadiazol-2-yl)-N3-methylisoxazole-3,5-dicarboxamide], for which the IC50 was in the range of 500 to 1000 nM.

Consider `CSc1nnc(NC(=O)c2nnn(Cc3ccccn3)n2)s1` [Compound 133, N-[5-(methylthio)-1,3,4-thiadiazol-2-yl]-2-(pyridin-2-ylmethyl)-1,2,3,4-tetrazole-5-carboxamide], for which the IC50 was at least 1000 nM. `CSc1nnc(NC(=O)c2cc(-c3ccccc3-c3ccc(CC(=O)O)cc3)cc(=O)o2)s1` [Compound 176]: the IC50 was in the range of 500 to 1000 nM. With `COc1ccc(-c2cc(C(=O)Nc3nnc(SC)s3)oc(=O)c2)cc1` [Compound 252, 4-(4-methoxyphenyl)-N-(5-methylsulfanyl-1,3,4-thiadiazol-2-yl)-6-oxo-pyran-2-carboxamide] the figure was 100 to 500 nM; with `O=C(Nc1nnc(C(F)F)s1)c1onc2ccccc12` [Compound 18, N-(5-(difluoromethyl)-1,3,4-thiadiazol-2-yl)benzo[c]isoxazole-3-carboxamide], at least 1000 nM; with `CSc1nnc(NC(=O)c2cc(C3CCC3)no2)s1` [Compound 86, 3-cyclobutyl-N-(5-(methylthio)-1,3,4-thiadiazol-2-yl)isoxazole-5-carboxamide], 500 to 1000 nM. As for `O=C(Nc1nnc(-c2ccccc2Cl)s1)c1cc(C2CC2)no1` [Compound 39, N-(5-(2-chlorophenyl)-1,3,4-thiadiazol-2-yl)-3-cyclopropylisoxazole-5-carboxamide], the IC50 fell in the range of 100 to 500 nM. With `CSc1nnc(NC(=O)c2cc(-c3ccccc3C)no2)s1` [Compound 218, 3-(2-methylphenyl)-N-[5-(methylsulfanyl)-1,3,4-thiadiazol-2-yl]-1,2-oxazole-5-carboxamide] the figure was 500 to 1000 nM; with `O=C(Nc1nnc(-c2cn[nH]c2)s1)c1onc2ccccc12` [Compound 145, N-(5-(1H-pyrazol-4-yl)-1,3,4-thiadiazol-2-yl)benzo[c]isoxazole-3-carboxamide], at least 1000 nM. On to `CSc1nnc(NC(=O)c2noc(-c3cccnc3)n2)s1` [Compound 105, N-[5-(methylsulfanyl)-1,3,4-thiadiazol-2-yl]-5-(pyridin-3-yl)-1,2,4-oxadiazole-3-carboxamide], for which the IC50 is at least 1000 nM. With `CSc1nnc(NC(=O)c2cc(-c3ccc(=O)[nH]c3)cc(=O)o2)s1` [Compound 272, N-(5-(methylthio)-1,3,4-thiadiazol-2-yl)-2-oxo-4-(6-oxo-1,6-dihydropyridin-3-yl)-2H-pyran-6-carboxamide] the figure was 500 to 1000 nM; with `Cc1nnc(NC(=O)c2onc3ccccc23)s1` [Compound 81, N-(5-methyl-1,3,4-thiadiazol-2-yl)benzo[c]isoxazole-3-carboxamide], at least 1000 nM; with `CSc1nnc(NC(=O)c2nc(Cc3ccccc3)no2)s1` [Compound 261, 3-benzyl-N-(5-methylsulfanyl-1,3,4-thiadiazol-2-yl)-1,2,4-oxadiazole-5-carboxamide], 500 to 1000 nM. Consider `CSc1nnc(NC(=O)c2onc3ccc(Cc4c[nH]c(=O)c(O)c4)cc23)s1` [Compound 189, 5-((5-Hydroxy-6-oxo-1,6-dihydropyridin-3-yl)methyl)-N-(5-(methylthio)-1,3,4-thiadiazol-2-yl)benzo[c]isoxazole-3-carboxamide], for which the IC50 is at least 1000 nM. Next, `CC1(c2cc(C(=O)Nc3nnc(-c4ccccc4Cl)s3)on2)COC1` [Compound 41, N-(5-(2-chlorophenyl)-1,3,4-thiadiazol-2-yl)-3-(3-methyloxetan-3-yl)isoxazole-5-carboxamide]: 100 to 500 nM; `CSc1nnc(NC(=O)c2nnc(N3CCCCC3)o2)s1` [Compound 108, N-(5-(methylthio)-1,3,4-thiadiazol-2-yl)-5-(piperidin-1-yl)-1,3,4-oxadiazole-2-carboxamide]: 500 to 1000 nM. With `COC(=O)c1ccc2c(C(=O)Nc3nnc(SC)s3)onc2c1` [Compound 278, methyl 3-((5-(methylthio)-1,3,4-thiadiazol-2-yl)carbamoyl)benzo[c]isoxazole-6-carboxylate] the figure was 500 to 1000 nM. Next, `O=C(Nc1nnc(-c2cccc(Cl)c2Cl)s1)c1cc(O)no1` [Compound 57, N-(5-(2,3-dichlorophenyl)-1,3,4-thiadiazol-2-yl)-3-hydroxyisoxazole-5-carboxamide]: below 100 nM; `CSc1nnc(NC(=O)c2nnn(-c3cccnc3)n2)s1` [Compound 137, N-(5-(methylthio)-1,3,4-thiadiazol-2-yl)-2-(pyridin-3-yl)-2H-tetrazole-5-carboxamide]: at least 1000 nM. Consider `CNC(=O)c1ccc2c(C(=O)Nc3nnc(SC)s3)onc2c1` [Compound 193, N6-methyl-N3-(5-(methylthio)-1,3,4-thiadiazol-2-yl)benzo[c]isoxazole-3,6-dicarboxamide], for which the IC50 was at least 1000 nM. In the case of `CSc1nnc(NC(=O)c2cc(-c3ccsc3)no2)s1` [Compound 139, N-[5-(methylsulfanyl)-1,3,4-thiadiazol-2-yl]-3-(thiophen-3-yl)-1,2-oxazole-5-carboxamide], the IC50 was 500 to 1000 nM. Next, `CSc1nnc(NC(=O)c2nnc(N3CCCC(C(=O)O)C3)o2)s1` (centres unmarked) [Compound 110, 1-(5-{[5-(methylsulfanyl)-1,3,4-thiadiazol-2-yl]carbamoyl}-1,3,4-oxadiazol-2-yl)piperidine-3-carboxylic acid]: 500 to 1000 nM.

Consider `O=C(Nc1nnc(-c2ccccc2Cl)s1)c1nc[nH]n1` [Compound 58, N-(5-(2-chlorophenyl)-1,3,4-thiadiazol-2-yl)-1H-1,2,4-triazole-3-carboxamide], for which the IC50 lay within 500 to 1000 nM. With `CSc1nnc(NC(=O)c2cc(-c3ccnc4ccccc34)cc(=O)o2)s1` [Compound 247, N-(5-methylsulfanyl-1,3,4-thiadiazol-2-yl)-6-oxo-4-(4-quinolyl)pyran-2-carboxamide] the figure was 500 to 1000 nM. With `O=C(Nc1nnc(-c2ccccc2Cl)s1)c1cc(C(F)F)no1` [Compound 35, N-(5-(2-chlorophenyl)-1,3,4-thiadiazol-2-yl)-3-(difluoromethyl)isoxazole-5-carboxamide] the figure was 500 to 1000 nM.
